Assay results published in US20250368646A1, “TRICYCLIC FUSED WRN INHIBITORS” (Nimbus Wadjet, Inc., priority 2024, published 2025).

Tests used:
[1] = target: T1, human Werner helicase (WRN-BV08, amino acids 517-1235 with L1074F point mutation) (Homo sapiens, UniProt Q14191, L1074F); assay: ADP-Glo WRN helicase ATPase inhibition assay; format: biochemical; settings: 0.15 nM WRN, 5 μM ATP, 0.1 nM DNA duplex; 15 minutes preincubation, 60 minutes at 25° C.; read-out: ADP-Glo_hWRN_IC50
T1 construct: [pFastBac1-WRN-(517-1235 L1074F)-TEV-8His]; 8xHis (C, cleaved yes); TEV cleavage site (ENLYFQG) (C); made in house; host or cells: Sf9 insect cells (baculovirus, pFastBac)
Text: Bovine skin gelatin (BSG), dimethyl sulfoxide (DMSO), Pluronic F-127 and tris(2-carboxyethyl)phosphine hydrochloride solution (TCEP) were purchased from Sigma-Aldrich (St. Louis, MO) at the highest level of purity possible. Bicine buffer solution was purchased from Alfa Aesar (Tewksbury, MA) and compound NSC-617145 was purchased from Tocris (Minneapolis, MN). DNA duplex was synthesized at BGI (Shenzhen, China) and was composed of strand 1 with the sequence 5′-[…]-3′ (SEQ ID NO.: 1) and strand 2 with the sequence 5′-[…]-3′ (SEQ ID NO.: 2). DNA strands were annealed by heating to 95° C. for 5 minutes followed by slow cooling to room temperature. Compounds in 100% DMSO (0.1 μl) were spotted into a 384-well white polystyrene Optiplate-384 (Perkin Elmer; Waltham, MA) assay plate using a LabCyte Echo 550 (Agilent; Santa Clara, CA). DMSO (0.1 μl) was added to columns 12, rows A-H and column 24, rows I-P for the maximum signal control. Compound NSC-617145 (0.1 μl) was added to columns 12, rows I-P and 24, rows A-H for the minimum signal control (100% inhibition). Compounds/DMSO were preincubated for 15 minutes at 25° C. with 5 μl 2×WRN (BV08), prepared as described below, in assay buffer containing 20 mM Bicine (pH=7.5), 1 mM MgCl2, 10 mM KCl, 0.1% Pluronic F-127, 0.005% BSG, 1 mM TCEP. The reaction was initiated by the addition of 5 μl 2× substrate mixture in assay buffer and incubated for 60 minutes at 25° C. The final concentrations of the assay components were 0.15 nM WRN, 5 μM ATP, and 0.1 nM DNA duplex. The final DMSO concentration was 1% and the reference compound concentration (NSC-617145) used for the minimal signal control was 20 μM. The reaction was stopped by the addition of the ADP-Glo Kit components (Promega; Madison, WI) as directed and the relative luminescence units (RLU) were read on an Envision 2104 (Perkin Elmer; Waltham, MA). % inhibition calculation:
Where RLU=relative luminescence units, sample=signal in sample well, and MIN and MAX are the respective minimum and maximum signal controls.
Four-Parameter IC50 Fit Equation:
Where top and bottom are normally allowed to float but may be fixed at 100 or 0 respectively in a 3-parameter fit. Y is the % inhibition and X is the compound concentration.
Molecular Biology and virus production. The DNA encoding human Werner helicase (Uniprot Q14191, amino acids 517-1235 with L1074F point mutation) was generated with codon-optimization for E. coli expression and subcloned into the pFastBac vector with a TEV cleavable 8×His tag (SEQ ID NO: 5) (WRN-BV08). The baculovirus from the expression plasmid WRN-BV08 was generated from transfection and amplification following the manufacturer's instructions.
Sf9 cells grown in SF900II media were infected with 1:200 WRN-BV08 P2 virus and incubated for protein expression for 72 h at 27° C. The WRN protein was purified using the following protocol. The cell pellets were thawed and resuspended in buffer A (50 mM Tris, pH 7.5, 500 mM NaCl, 1 mM TCEP, 10% Glycerol) supplemented with 0.5% CHAPS, 1 mM PMSF, […] Leupeptin, 1 μg/ml Pepstatin, and the Pierce Universal Nuclease and cocktail tablet. Cleared lysates were loaded onto a Ni Sepharose™ excel column and washed with buffer A and bound protein was eluted with buffer A supplemented with 300 mM imidazole. The eluted protein was dialyzed against buffer A and digested by His-tagged TEV (1:5 ratio) overnight at 4° C. ZnCl2 was added into the sample at final 15 μM before loading onto a second Ni Sepharose™ excel column. Untagged WRN protein was eluted from the column with buffer A supplemented with 20 mM imidazole, dialyzed overnight into buffer B (50 mM Tris, pH 7.5, 1 mM TCEP, 10% Glycerol) supplemented with 150 mM NaCl and loaded onto a Heparin column. Proteins were eluted with a step gradient of buffer B supplemented with 150 mM, 200 mM, 300 mM and 500 mM NaCl. […]

[2] = system: p21 induction in HCT 116 cells; assay: p21 induction in cells (in-cell western, p21/GAPDH ratio); format: cell-based; settings: Homo sapiens; HCT 116 colon carcinoma cell line, 24 h compound incubation; percent activation vs internal reference WRN inhibitor; read-out: P21_EC50
Protocol: The colon carcinoma cell line HCT 116 was obtained from ATCC and cultured in growth medium consisting of Mccoy's 5A Medium (Gibco 16600108) supplemented with […] (Transgene FS201-02) and 100 units/mL penicillin-streptomycin (Gibco 15140122) and maintained at 37° C. under […]. On the day of seeding, 2,000 cells in 30 μL of culture media were plated per well to Poly-D-Lysine 384 Well Black Clear Plates (Biocoat 356663) and incubated overnight at 37° C. under 5% CO2. The following day, compounds were serially diluted in DMSO for a total of 11 test concentrations. The typical starting concentration of cpds was 10 μM with 2-fold dilutions. Next, 150 nL of diluted compound was added in duplicate to the assay plate, using an Echo 655 (Labcyte). The plate was centrifuged at 500 RPM for 1 min and then incubated at 37° C. under 5% CO2 for 24 h. After 24 h, medium was removed, and cells were fixed by adding 40 µL of 4% paraformaldehyde solution to each well and incubated for 20 min at room temperature. The plate was then washed 4 times with 100 μL per well of wash buffer (PBS with 0.1% Tween-20) using a microplate washer. Next, 30 μL of ice-cold methanol was added to each well and the plate was incubated at −20° C. for 10 min. The plate was washed 4 times with 100 μL per well of wash buffer by a microplate washer, then 30 μL per well of blocking buffer (Intercept PBS blocking buffer (LI-COR 927-70001) with 0.05% Tween-20) was added and the plate was incubated at room temperature with shaking for 2 h. Next, to each test well, 20 μL of primary antibody solution (p21 Waf1/CIP (12D1) Rabbit mAb (Cell Signaling Technologies 2947) diluted 1:1000 and GAPDH (D4C6R) Mouse mAb (Cell Signaling Technologies 97166) diluted 1:2000 in blocking buffer) was added and the plate was placed at 4° C., overnight. The following day, the plate was washed 5 times with 100 μL per well of wash buffer using a microplate washer for 5 min. 20 μL per well of secondary antibody (IRDye 680CW Goat anti-Mouse IgG (H+L) (LI-COR 926-68070) diluted 1: 2000 in Blocking Buffer and IRDye 800CW Goat anti-Rabbit IgG (H+L) (LI-COR 926-32211) diluted 1: 2000 in Blocking Buffer) was then added and the plate was stored for 2 h in the dark at room temperature with shaking. The plate was then washed 4 times with 100 μL per well of wash buffer again using a microplate washer. Finally, the p21 signal and the GAPDH signal were quantified using a LI-COR Odyssey CLx Imager machine reading at 800 nm and 700 nm, respectively. Each plate contained DMSO control (low control) and an internal reference WRN inhibitor (high control) respectively. For quantitation, the 800 nm/700 nm ratio was calculated for each well to give fold p21 induction and then percent activation for each compound well was calculated as follows (100×(ratio cpd well-ratio low control)/(ratio high control−ratio low control)). EC50 values for each compound were generated after non-linear regression curve fitting using commercially available software.

T1 sequence (Q14191 with tags, fused parts or gaps L1074F): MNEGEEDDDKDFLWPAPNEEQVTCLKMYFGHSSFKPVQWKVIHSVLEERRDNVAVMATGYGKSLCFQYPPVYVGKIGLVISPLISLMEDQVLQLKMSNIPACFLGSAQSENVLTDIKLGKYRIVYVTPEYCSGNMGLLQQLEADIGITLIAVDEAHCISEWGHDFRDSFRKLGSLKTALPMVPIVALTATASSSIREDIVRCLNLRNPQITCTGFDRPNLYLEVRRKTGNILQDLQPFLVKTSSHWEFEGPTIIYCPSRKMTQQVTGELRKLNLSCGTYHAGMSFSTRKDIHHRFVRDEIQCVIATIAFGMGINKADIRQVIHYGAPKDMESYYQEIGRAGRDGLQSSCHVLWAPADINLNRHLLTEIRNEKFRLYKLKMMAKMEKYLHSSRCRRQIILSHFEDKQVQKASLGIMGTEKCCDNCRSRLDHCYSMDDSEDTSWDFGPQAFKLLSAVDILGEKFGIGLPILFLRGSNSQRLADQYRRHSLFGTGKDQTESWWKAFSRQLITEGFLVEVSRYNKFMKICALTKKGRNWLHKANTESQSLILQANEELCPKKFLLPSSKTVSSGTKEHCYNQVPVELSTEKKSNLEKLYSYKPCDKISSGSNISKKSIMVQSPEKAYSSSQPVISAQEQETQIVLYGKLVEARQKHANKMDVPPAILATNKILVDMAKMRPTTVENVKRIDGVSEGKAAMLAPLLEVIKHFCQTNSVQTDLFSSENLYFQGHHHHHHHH

Row | Structure (SMILES) | IC50 [1] | EC50 [2]
1 | Cc1ncnc(C(=O)N2CCN(c3c4n(c5nn(C6CC6)nc5c3=O)[C@H](C(=O)Nc3ccc(C(F)(F)F)cc3Cl)C[C@H]4C)[C@H]3CC[C@@H]32)c1O (relative stereo) [Compound I-27, (6R*,8R**)-N-[2-chloro-4-(trifluoromethyl)phenyl]-2-cyclopropyl-5-[(1S,6S)-5-(5-hydroxy-6-methylpyrimidine-4-carbonyl)-2,5-diazabicyclo[4.2.0]octan-2-yl]-6-methyl-4-oxo-2H,4H,6H,7H,8H-[1,2,3]triazolo[4,5-e]indolizine-8-carboxamide] | ≤ 5 nM | ≤ 500 nM
2 | Cc1ncnc(C(=O)N2CCN(c3c4n(c5nn(C6CC6)nc5c3=O)[C@@H](C(=O)Nc3ccc(C(F)(F)F)cc3Cl)C[C@@H]4C)[C@H]3CC[C@@H]32)c1O (relative stereo) [Compound I-28, (6R*,8R**)-N-[2-chloro-4-(trifluoromethyl)phenyl]-2-cyclopropyl-5-[(1S,6S)-5-(5-hydroxy-6-methylpyrimidine-4-carbonyl)-2,5-diazabicyclo[4.2.0]octan-2-yl]-6-methyl-4-oxo-2H,4H,6H,7H,8H-[1,2,3]triazolo[4,5-e]indolizine-8-carboxamide] | 5 to 50 nM | 500 to 2000 nM
3 | COc1cc(-n2nc3c(=O)c(N4CCN(C(=O)c5ncnc(C)c5O)[C@H]5CC[C@@H]54)c4n(c3n2)[C@@H](C(=O)NC23CC(C5CC5)(C2)C3)C[C@@H]4C)ccn1 (single isomer, unassigned) [Compound I-1] | 5 to 50 nM | ≤ 500 nM
4 | COc1cc(-n2nc3c(=O)c(N4CCN(C(=O)c5ncnc(C)c5O)[C@H]5CC[C@@H]54)c4n(c3n2)[C@@H](C(=O)NC23CC(C5CC5)(C2)C3)C[C@H]4C)ccn1 (single isomer, unassigned) [Compound I-2] | 5 to 50 nM | ≤ 500 nM
5 | COc1cc(-n2nc3c(=O)c(N4CCN(C(=O)c5ncnc(C)c5O)[C@H]5CC[C@@H]54)c4n(c3n2)[C@H](C(=O)NC23CC(C5CC5)(C2)C3)C[C@H]4C)ccn1 (single isomer, unassigned) [Compound I-3] | 50 to 100 nM | 500 to 2000 nM
6 | COc1cc(-n2nc3c(=O)c(N4CCN(C(=O)c5ncnc(C)c5O)[C@H]5CC[C@@H]54)c4n(c3n2)[C@H](C(=O)NC23CC(C5CC5)(C2)C3)C[C@@H]4C)ccn1 (single isomer, unassigned) [Compound I-4] | 100 to 500 nM | > 5000 nM
7 | COc1cc(-n2nc3c(=O)c(N4CCN(C(=O)c5ncnc(C)c5O)[C@H]5CC[C@@H]54)c4n(c3n2)[C@@H](C(=O)Nc2ccc(C(F)(F)F)cc2Cl)C[C@H]4C)ccn1 (single isomer, unassigned) [Compound I-5] | ≤ 5 nM | ≤ 500 nM
8 | COc1cc(-n2nc3c(=O)c(N4CCN(C(=O)c5ncnc(C)c5O)[C@H]5CC[C@@H]54)c4n(c3n2)[C@H](C(=O)Nc2ccc(C(F)(F)F)cc2F)C[C@@H]4C)ccn1 (single isomer, unassigned) [Compound I-6] | ≤ 5 nM | ≤ 500 nM
9 | Cc1cnc2c(n1)c(=O)c(N1CCN(C(=O)c3ncnc(C)c3O)[C@H]3CC[C@@H]31)c1n2[C@H](C(=O)Nc2ccc(C(F)(F)F)cc2Cl)C[C@@H]1C (single isomer, unassigned) [Compound I-7] | ≤ 5 nM | ≤ 500 nM
10 | Cc1cnc2c(n1)c(=O)c(N1CCN(C(=O)c3ncnc(C)c3O)[C@H]3CC[C@@H]31)c1n2[C@@H](C(=O)Nc2ccc(C(F)(F)F)cc2Cl)C[C@H]1C (single isomer, unassigned) [Compound I-8] | 100 to 500 nM | > 5000 nM
11 | COc1cc(-n2nc3c(=O)c(N4CCN(C(=O)c5ncnc(C)c5O)[C@H]5CC[C@@H]54)c4n(c3n2)[C@H](C(=O)Nc2ccc(C(F)(F)F)cc2Cl)C[C@@H]4C)ccn1 (single isomer, unassigned) [Compound I-9] | 100 to 500 nM | 500 to 2000 nM
12 | COc1cc(-n2nc3c(=O)c(N4CCN(C(=O)c5ncnc(C)c5O)[C@H]5CC[C@@H]54)c4n(c3n2)[C@@H](C(=O)Nc2ccc(C(F)(F)F)cc2F)C[C@H]4C)ccn1 (single isomer, unassigned) [Compound I-10] | 100 to 500 nM | 2000 to 5000 nM
13 | COc1cc(-n2nc3c(=O)c(N4CCN(C(=O)c5ncnc(C)c5O)[C@H]5CC[C@@H]54)c4n(c3n2)[C@H](C(=O)Nc2ccc(C(F)(F)F)cc2Cl)C[C@H]4C)ccn1 (single isomer, unassigned) [Compound I-13] | ≤ 5 nM | 
14 | Cc1nc2c(=O)c(N3CCN(C(=O)c4ncnc(C)c4O)[C@H]4CC[C@@H]43)c3n(c2nc1C)[C@@H](C(=O)Nc1ccc2c(c1Cl)OC(F)(F)O2)C[C@H]3C [Compound I-26, (7R,9R)—N-(4-chloro-2,2-difluoro-2H-1,3-benzodioxol-5-yl)-6-[(1S,6S)-5-(5-hydroxy-6-methylpyrimidine-4-carbonyl)-2,5-diazabicyclo[4.2.0]octan-2-yl]-2,3,7-trimethyl-5-oxo-5H,7H,8H,9H-pyrazino[2,3-e]indolizine-9-carboxamide] |  | ≤ 500 nM
